Experimental findings from ChEMBL document CHEMBL3817765, “Doxifluridine-conjugated 2-5A analog shows strong RNase L activation ability and tumor suppressive effect” (Bioorg Med Chem, 2016) are described below.

pEC50: −log10 of the molar value. Active and inactive are the calls of the source. The calls are words filed in the database; no cut-off is given here.

Data set [1] deals with T1, 2-5A-dependent ribonuclease (Homo sapiens) (UniProt Q05823).
T1 sequence (whole entry): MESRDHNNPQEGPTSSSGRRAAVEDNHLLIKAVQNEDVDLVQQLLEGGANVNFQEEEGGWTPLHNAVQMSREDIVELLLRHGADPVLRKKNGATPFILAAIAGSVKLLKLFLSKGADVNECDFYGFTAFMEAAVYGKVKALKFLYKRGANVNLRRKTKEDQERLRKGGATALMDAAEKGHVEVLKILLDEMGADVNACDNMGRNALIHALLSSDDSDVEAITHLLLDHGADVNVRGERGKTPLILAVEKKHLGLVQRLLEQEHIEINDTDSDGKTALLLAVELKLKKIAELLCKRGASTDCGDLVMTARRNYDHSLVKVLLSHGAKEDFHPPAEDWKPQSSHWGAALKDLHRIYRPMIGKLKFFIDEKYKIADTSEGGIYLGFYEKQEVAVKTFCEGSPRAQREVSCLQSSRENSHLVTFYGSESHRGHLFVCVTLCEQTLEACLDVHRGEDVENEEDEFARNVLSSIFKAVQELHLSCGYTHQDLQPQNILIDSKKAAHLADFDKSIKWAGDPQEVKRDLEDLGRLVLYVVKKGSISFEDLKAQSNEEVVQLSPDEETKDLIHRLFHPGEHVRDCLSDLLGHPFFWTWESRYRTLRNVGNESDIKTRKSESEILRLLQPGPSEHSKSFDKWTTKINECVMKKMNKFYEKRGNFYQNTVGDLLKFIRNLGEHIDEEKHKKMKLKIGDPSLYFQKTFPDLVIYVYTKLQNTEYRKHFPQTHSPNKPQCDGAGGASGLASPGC
The experiment in a line: Ratio of p5'A2'p5'A2'p5'A2'p5'A EC50 to compound EC50 for recombinant human RNase L activity.

Data set [2] concerns the target T2, 2-5A-dependent ribonuclease (Homo sapiens, UniProt Q05823).
T2 sequence (Q05823 whole entry): T1 sequence (whole entry)
The data set can be described thus: Induction of recombinant human RNase L activity expressed in Escherichia coli using F-5'-r(C11U2C7)-3' as substrate by polyacrylamide gel electrophoresis. The settings on record: for pEC50: read-out: EC50.

In data set [3] the test system is HeLa. The data set can be described thus: Cytotoxicity against human HeLa cells assessed as cell growth inhibition after 6 to 24 hrs by counting chamber analysis. The format is functional, cell-based.
The nature of data set [4]: Half life of the compound assessed as snake venom phosphodiesterase-mediated compound hydrolysis at 9 uM by HPLC analysis. In kind it is ADME. The settings on record: serpentes.
The subject of data set [5] is HeLa. The experiment in a line: Cytotoxicity against human HeLa cells assessed as cell growth at 1 uM after 6 to 24 hrs by counting chamber analysis relative to control. The format is functional. The conditions noted are these: read-out: Activity.
Data set [6] concerns HeLa. The data set can be described thus: Cytotoxicity against human HeLa cells assessed as cell growth inhibition at 0.1 to 1 uM after 6 to 24 hrs by counting chamber analysis. In kind it is functional, cell-based.

As for `Nc1ncnc2c1ncn2[C@@H]1O[C@H](COP(=O)(O)O[C@@H]2[C@H](O)[C@@H](COP(=O)(O)O[C@@H]3[C@H](O)[C@@H](COP(=O)(O)O[C@@H]4[C@H](O)[C@@H](COP(=O)(O)O)O[C@H]4n4ccc(=O)[nH]c4=O)O[C@H]3n3cnc4c(N)ncnc43)O[C@H]2n2cnc3c(N)ncnc32)[C@@H](O)[C@H]1O`, the Ratio EC50 in data set [1] amounted to 0.15. The pEC50 in data set [2] is 7.08.
As for `Cc1nc2c(N)ncnc2n1[C@@H]1O[C@H](COP(=O)(O)O[C@@H]2[C@H](O)[C@@H](COP(=O)(O)O[C@@H]3[C@H](O)[C@@H](COP(=O)(O)O[C@H]4[C@@H](O)[C@H](n5ccc(=O)[nH]c5=O)O[C@@H]4CO)O[C@H]3n3cnc4c(N)ncnc43)O[C@H]2n2cnc3c(N)ncnc32)[C@@H](O)[C@H]1O`, in data set [1], the Ratio EC50 worked out at 0.1. In data set [2], the pEC50 was 6.87.
With `Nc1ncnc2c1ncn2[C@@H]1O[C@H](COP(=O)(O)O[C@@H]2[C@H](O)[C@@H](COP(=O)(O)O[C@@H]3[C@H](O)[C@@H](COP(=O)(O)O[C@@H]4[C@H](O)[C@@H](CO)O[C@H]4n4cnc5c(N)ncnc54)O[C@H]3n3cnc4c(N)ncnc43)O[C@H]2n2cnc3c(N)ncnc32)[C@@H](O)[C@H]1O`, in data set [2], the EC50 result is on record as “Not Active”.
On to `Cc1nc2c(N)ncnc2n1[C@@H]1O[C@H](COP(=O)(O)O[C@@H]2[C@H](O)[C@@H](COP(=O)(O)O[C@@H]3[C@H](O)[C@@H](COP(=O)(O)O[C@H]4[C@@H](O)[C@H](n5cnc6c(N)ncnc65)O[C@@H]4CO)O[C@H]3n3cnc4c(N)ncnc43)O[C@H]2n2cnc3c(N)ncnc32)[C@@H](O)[C@H]1O`, for which the Ratio EC50 in data set [1] was 0.64. In addition, the pEC50 in data set [2] was 7.69.
As to `Cc1nc2c(N)ncnc2n1[C@@H]1O[C@H](COP(=O)(O)O[C@@H]2[C@H](O)[C@@H](COP(=O)(O)O[C@@H]3[C@H](O)[C@@H](COP(=O)(O)O[C@@H]4[C@H](O)[C@@H](COP(=O)(O)O)O[C@H]4n4ccc(=O)[nH]c4=O)O[C@H]3n3cnc4c(N)ncnc43)O[C@H]2n2cnc3c(N)ncnc32)[C@@H](O)[C@H]1O`, the Ratio EC50 in data set [1] came to 4.8. Also, the pEC50 in data set [2] was 8.57.
The like results for `Cc1nc2c(N)ncnc2n1[C@@H]1O[C@H](COP(=O)(O)O[C@@H]2[C@H](O)[C@@H](COP(=O)(O)O[C@@H]3[C@H](O)[C@@H](COP(=O)(O)O[C@@H]4[C@H](O)[C@@H](CO)O[C@H]4n4cnc5c(N)ncnc54)O[C@H]3n3cnc4c(N)ncnc43)O[C@H]2n2cnc3c(N)ncnc32)[C@@H](O)[C@H]1O` were, in that order, 5.6 and 8.64.
`C[C@H]1O[C@@H](n2cc(F)c(=O)[nH]c2=O)[C@H](O)[C@@H]1O`: the “growth inhibition (GI)” value in the data set with HeLa [3] was “Dose-dependent effect”.
For the compound `Cc1nc2c(N)ncnc2n1[C@@H]1O[C@H](COP(=O)(O)O[C@@H]2[C@H](O)[C@@H](COP(=O)(O)O[C@@H]3[C@H](O)[C@@H](COP(=O)(O)O[C@@H]4[C@H](O)[C@@H](CO)O[C@H]4n4ccc(=O)[nH]c4=O)O[C@H]3n3cnc4c(N)ncnc43)O[C@H]2n2cnc3c(N)ncnc32)[C@@H](O)[C@H]1O`, the Ratio EC50 in data set [1] turned out to be 5.4. Further, the negative-log EC50 (pEC50) in data set [2] is 8.62.
`Cc1nc2c(N)ncnc2n1[C@@H]1O[C@H](COP(=O)(O)O[C@@H]2[C@H](O)[C@@H](COP(=O)(O)O[C@@H]3[C@H](O)[C@@H](COP(=O)(O)O[C@@H]4[C@H](O)[C@@H](C)O[C@H]4n4cc(F)c(=O)[nH]c4=O)O[C@H]3n3cnc4c(N)ncnc43)O[C@H]2n2cnc3c(N)ncnc32)[C@@H](O)[C@H]1O`: the half-life at 9 µM in data set [4] was 9 min. Also, the Ratio EC50 in data set [1] was 28.9. For the same compound, the “growth inhibition (GI)” value in the data set on HeLa [3] was “Dose-dependent effect”. Further, the growth at 1 µM in the data set on HeLa [5] turned out to be 25%. Besides, in data set [2], the pEC50 is 9.35.
For `Nc1ncnc2c1ncn2[C@@H]1O[C@H](COP(=O)(O)O[C@@H]2[C@H](O)[C@@H](COP(=O)(O)O[C@@H]3[C@H](O)[C@@H](COP(=O)(O)O[C@@H]4[C@H](O)[C@@H](COP(=O)(O)O)O[C@H]4n4cnc5c(N)ncnc54)O[C@H]3n3cnc4c(N)ncnc43)O[C@H]2n2cnc3c(N)ncnc32)[C@@H](O)[C@H]1O`, in data set [4], the half-life at 9 µM was found to be 6.4 min. Besides, in the data set with HeLa [6], the “growth inhibition (GI)” value is “inactive”. For the same compound, the pEC50 in data set [2] is 7.89.
